The target of one assay is T1, recombinant HDAC-1 (Homo sapiens, UniProt Q13547).
T1 construct: made in house; host or cells: HEK 293 cells
Briefly: HDAC biochemical quench assay. As to conditions: recombinant HDAC-1 purified from HEK 293 cells, 1 uM peptide substrate, 90 min at room temperature. An excerpt: The function of histone deacetylase (HDAC) is the deacetylation of lysines in e.g. histone H4. A peptide of 17 amino acids derived from histone H4 was labeled with TAMRA at the C-terminus and QSY-7 at the N-terminus and was used as a substrate (TAMRA-first17 aa of histone H4-QSY7). Following deacetylation by HDAC, the enzyme Lys C is able to cleave the peptide after lysine. […] Inhibition of HDAC by compounds results in low signals because Lys C could not cleave the substrate and the quench effect persists.
For dose response curves, 10 concentrations were diluted 1:3 starting at 30 uM. 10 ul compound dilution were put into each well of a 384 well plate. 10 ul HDAC were added (recombinant HDAC-1 purified from HEK 293 cells; enzyme activity has to be assessed for each preparation). 10 ul peptide substrate was added (1 uM final concentration, derived from 1 mM stock solution diluted 1:1000 in test buffer). After 90 min incubation at room temperature, the reaction was stopped by addition of 20 ul test buffer including 3 ug/ml Lys C and 0.075% SDS. After overnight incubation the fluorescence signal of TAMRA was measured (Victor 2 from Wallac, absorption 544 nm, emission 590 nm). The O.D. of DMSO-treated control wells is 100%, the % inhibition of compound treated wells is calculated in relation to 100%. Based on 10 concentrations a IC50 curve is generated by using XL.fit3.
Test buffer used: a mixture of 10 mM Hepes pH8, 10 mM NaCl, 10% Glycerol, 0.005% Triton X100, 0.1 mM EDTA, 0.1 mM TCEP. As plates were used 384 well plates (black, Greiner, 781077).

The subject of assay [1] is HCT116 tumor cells (human colon adenocarcinoma) xenograft. The experiment in a line: Antitumor activity in a HCT116 xenograft model. The format is in vivo, NMRI nude male mice. As to conditions: 21 dosing days over 29 days. As for the experimental part:
Determination of Antitumor Activity in a HCT116 Xenograft Model
The HCT116 cell line (NCI line) is derived from a human colon adenocarcinoma and kept in an in house working cell bank. Cells were cultured in RPMI1640/2 mM L-glutamin medium supplemented with 10% heat inactivated FCS. For inoculation HCT116 tumor cells are removed (trypsin-EDTA, 50 U/mg) from culture flasks and transferred into culture medium (RPMI 1640, 10% heat inactivated FCS), washed and resuspended in sterile PBS to achieve a final cell concentration of 5×10^6/100 μl. Cell suspension was carefully mixed by regular shaking to avoid cell aggregation and filled into a 1.0 ml graded syringe. Tumor cell inoculation was performed under light anesthesia (Ethrane.) in the upper ventral quarter of right flank, i.e. between axilla of forelegs and midline region of NMRI nude male mice. In this site 5×10^6 HCT116 tumor cells were s.c. discharged in a volume of 100 μl PBS. All procedures were carried out under SPF conditions wearing appropriate clothings. After s.c. inoculation of tumor cells, measurable tumors developed in all animals. Mice were staged and randomized on day 10 according to the primary tumor dimensions. 21 days daily oral dosing was carried out using the compound of example 1 and compound 3 of WO 93/07148, WO 95/31977, U.S. Pat. No. 5,369,108 ('108 patent) as test article. 75 male NMRI nude mice were divided into 5 study groups. Each group consisted of 15 male animals. The individual groups were given the test article, formulated as microsuspensions in 7.5% modified gelatin with 0.22% NaCl solution, once daily by oral route over 29 days according to the following treatment scheme: 3 days treatment, 2 days drug holiday, 5 days treatment, 2 days drug holiday, 5 days treatment, 2 days drug holiday, 5 days treatment, 2 days drug holiday, 3 days treatment. The application volume was 10 ml/kg. The oral doses chosen were 50, 100, and 200 mg/kg of the compound of example 1 and 200 mg/kg of compound 3 of the '108 patent.

Assay [2] has as its system PC-3 prostate carcinoma cells xenograft. Briefly: Antitumor activity in a PC-3 xenograft model. The assay is classed as in vivo, NMRI nude mice. As to conditions: 15 days of treatment over 19 days, vs vehicle group. As for the experimental part: Determination of Antitumor Activity in a PC-3 Xenograft Model
PC-3 prostate carcinoma cells were originally obtained from the NCI collection and were deposited after expansion in the Roche cell bank Penzberg. Tumor cell line was routinely cultured in RPMI 1640 Medium containing 10% FBS and 2 mM L-glutamine at 37° C. in a water-saturated atmosphere at 5% CO2. Culture passage was performed with trypsin/EDTA 1× (Roche Diagnostics) splitting twice a week. Cell passage 3 was used in the present study.
At the day of cell injection, cells were harvested from culture flasks (Greiner T 75), transferred into 50 ml culture medium, washed once and resuspended in PBS. After an additional washing with PBS, the final cell titer was measured with a Neubauer-Chamber. The tumor cell suspension (PBS) was vortexed carefully (to reduce cell aggregation) and kept on ice. The cell suspension was filled into a 1.0 ml syringe. To generate primary tumors, 2×10^6 PC-3 tumor cells in a volume of 100 μl PBS were injected subcutaneously into the right flank of each mouse (NMRI nude mice). After s.c. inoculation of tumor cells, measurable tumors developed in all animals. Mice were staged and randomized on day 10 according to the primary tumor dimensions. 15 days daily oral dosing was carried out using the compound of example 1 and compound 3 of WO 93/07148, WO 95/31977, U.S. Pat. No. 5,369,108 as test article. 90 male NMRI nude mice were divided into 6 study groups. Each group consisted of 15 male animals. The individual groups were given the test article, formulated as microsuspensions in 7.5% modified gelatin with 0.22% NaCl solution, once daily by oral route over 19 days (3 cycles of 5 days treatment and a 2-day drug free period each). The application volume was 10 ml/kg. The oral doses chosen were 25, 50, 100, and 200 mg/kg of example 1 and 200 mg/kg of compound 3 of patent '108. The study was terminated on day 28 after tumor cell injection when the vehicle group reached the termination criteria.

As usually defined, the IC50 is the midpoint of a concentration-inhibition curve.

T1 sequence (Q13547 whole entry, species assumed): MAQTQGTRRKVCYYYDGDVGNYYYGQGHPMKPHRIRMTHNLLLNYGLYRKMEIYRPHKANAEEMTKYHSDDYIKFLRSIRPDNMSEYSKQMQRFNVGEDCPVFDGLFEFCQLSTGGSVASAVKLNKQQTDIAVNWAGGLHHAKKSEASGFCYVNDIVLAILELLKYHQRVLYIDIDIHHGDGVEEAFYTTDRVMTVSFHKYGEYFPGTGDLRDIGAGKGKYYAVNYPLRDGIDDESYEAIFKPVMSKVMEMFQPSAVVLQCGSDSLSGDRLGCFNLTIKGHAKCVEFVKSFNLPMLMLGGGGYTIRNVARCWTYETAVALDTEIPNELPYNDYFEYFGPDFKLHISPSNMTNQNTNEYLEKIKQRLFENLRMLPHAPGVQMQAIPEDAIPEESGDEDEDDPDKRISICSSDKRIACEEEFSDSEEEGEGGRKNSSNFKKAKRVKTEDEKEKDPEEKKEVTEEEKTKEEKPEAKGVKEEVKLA

With `C[C@@H](NC(=O)c1ccc(C(=O)NO)s1)c1ccccc1` [Example 1, (R)-thiophene-2,5-dicarboxylic acid 2-hydroxyamide 5-[(1-phenyl-ethyl)-amide]], the IC50 on recombinant HDAC-1 was found to be 3.4 nM. In addition, the tumor weight inhibition in assay [1] (50 mg/kg oral once daily) amounted to 40%; in assay [1] (100 mg/kg oral once daily), 49%; in assay [1] (200 mg/kg oral once daily), 87%; in assay [2] (25 mg/kg oral once daily), 15%; in assay [2] (50 mg/kg oral once daily) it was 36%; in assay [2] (100 mg/kg oral once daily) it was 51%. For the same molecule, the tumor weight inhibition in assay [2] (200 mg/kg oral once daily) turned out to be 81%.

(Values after patent US7098241B2, “Thiophene hydroxamic acid derivatives” (Hoffmann-La Roche Inc., priority 2002, dated 2006).)
